Each structure is given as a SMILES string. Where a name gives a salt, the structure may show the parent alone.

By melting point is commonly meant the temperature of the solid-liquid transition.

`COc1ccc(S(=O)(=O)C2(C(=O)NO)CCN(CCc3ccccc3)CC2)cc1` (as salt: HCl) [Example 103, 4-(4-methoxy-benzenesulfonyl)-1-(2-phenyl-ethyl)-piperidine-4-carboxylic acid hydroxyamide] registered a melting point of 205 °C. Molecule `COc1ccc(S(=O)(=O)C2(C(=O)NO)CCCC2)cc1` [Example 54, 1-(4-Methoxy-benzenesulfonyl)-cyclopentanecarboxylic acid hydroxyamide] had a melting point of 89 to 91 °C. Molecule `COc1ccc([S+]([O-])C(C)(CC=C(C)C)C(=O)NO)cc1` (stereo not drawn) [Example 6, 2-(4-Methoxy-benzenesulfinyl)-2,5-dimethyl-hex-4-enoic acid hydroxyamide] had a melting point of 108 °C. Then `CCCCN1CCC(C(=O)NO)(S(=O)(=O)c2ccc(OC)cc2)CC1` [Example 93, 1-Butyl-4-(4-methoxy-benzenesulfonyl)-piperidine-4-carboxylic acid hydroxyamide], with 75 °C. The same measure for `CCCCCC(Sc1ccc(OC)cc1)C(=O)NO` (stereo not drawn) [Example 80, 2-(4methoxy-phenylsulfanyl)-heptanoic acid hydroxyamide]: 90 to 95 °C.

With `COc1ccc(S(=O)(=O)C(C)(Cc2ccc(OCCCN3CCN(c4cccc(Cl)c4)CC3)cc2)C(=O)NO)cc1` (stereo not drawn) (as salt: HCl) [Example 23, 3-(4-{3-[4-(3-Chloro-phenyl)-piperazin-1-yl]-propoxy}-phenyl)-N-hydroxy-2-(4-methoxy-benzenesulfonyl)-2-methyl-propionamide], the melting point amounted to 122 °C. Then `CCCCCCCCC(Cc1cccnc1)(C(=O)NO)S(=O)(=O)c1ccc(OC)cc1` (stereo not drawn) [Example 62, 2-(4-Methoxy-benzenesulfonyl)-2-pyridin-3-ylmethyl-decanoic acid hydroxyamide], with 62 °C; and `COc1ccc(S(=O)(=O)C(C)(CCCCN2C(=O)c3ccccc3C2=O)C(=O)NO)cc1` (stereo not drawn) [Example 31, 6-(1,3-Dioxo-1,3-dihydro-isoindol-2-yl)-2(4-methoxy-benzenesulfonyl)-2-methyl-hexanoic acid hydroxyamide], with 146 to 148 °C; and `CCCCC(C(=O)NO)S(=O)(=O)c1ccc(OC)cc1` (stereo not drawn) [Example 10, 2-(4-Methoxy-benzenesulfonyl)-hexanoic acid hydroxyamide], with 130 °C. On to `CCN1CCC(C(=O)NO)(S(=O)(=O)c2ccc(OC)cc2)CC1` [Example 95, 1-Ethyl-4-(4-methoxy-benzenesulfonyl)-piperidine-4-carboxylic acid hydroxyamide], for which the melting point was 85 °C. The same measure for `CCCCOc1ccc(S(=O)(=O)C2(C(=O)NO)CCN(Cc3ccc(F)cc3)CC2)cc1` [Example 100, 1-(4-Fluoro-benzyl)-4-(4-butoxy-benzenesulfonyl)-piperidine-4-carboxylic acid hydroxyamide]: 112 °C.

The molecule `COc1ccc(S(=O)(=O)C(C)(Cc2ccc3ccccc3c2)C(=O)NO)cc1` (stereo not drawn) [Example 52, N-hydroxy-2-(4-methoxy-benzenesulfonyl)-2-methyl-3-naphthalen-2-yl-propionamide] had a melting point of 185 to 187 °C. The same measure for `COc1ccc(SC(C(=O)NO)C(C)C)cc1` (stereo not drawn) [Example 4, N-Hydroxy-2-(4methoxy-phenylsulfanyl)-3-methyl-butyramide]: 119 °C. On to `CCCCCC#CCC(Cc1cccnc1)(C(=O)NO)S(=O)(=O)c1ccc(F)cc1` (stereo not drawn) (as salt: salt) [Example 77, 2-(4-Fluoro-benzenesulfonyl)-2-pyridin-3-ylmethyl-dec-4-ynoic acid hydroxyamide], for which the melting point was 180 to 182 °C.

For the molecule `COc1ccc(S(=O)(=O)C2(C(=O)NO)CCN(Cc3ccc(Cl)c(Cl)c3)CC2)cc1` [Example 85, 1-(3,4-dichlorobenzyl)-4-(4-methoxy-benzenesulfonyl)-piperidine-4-carboxylic acid hydroxamide], the melting point is 192 to 195 °C.

For the origin of these results see US6342508B1, “N-hydroxy-2-(Alkyl,Aryl or Heteroaryl sulfanyl, sulfinyl or sulfonyl) 3-substituted alkyl, aryl or heteroarylamides as matrix metalloproteinase inhibitors” (American Cyanamid Company, priority 1997, dated 2002).
